pIC50: −log10 of the molar value. Values after ≈ are worked out from the molar mass of the structure shown. Where two headings read alike, the source gives them in different places.
Tests used:
IRAK4 = target: T1, IRAK4 (Homo sapiens, UniProt Q9NWZ3); test: Deep proteomics / degradation time course in OCI-Ly10 (FIG. 8); format: cell-based; details: OCI-Ly10, between 16-24 h post treatment
T1 construct: endogenous in cells; host or cells: OCI-Ly10
T1 sequence (Q9NWZ3 1-460): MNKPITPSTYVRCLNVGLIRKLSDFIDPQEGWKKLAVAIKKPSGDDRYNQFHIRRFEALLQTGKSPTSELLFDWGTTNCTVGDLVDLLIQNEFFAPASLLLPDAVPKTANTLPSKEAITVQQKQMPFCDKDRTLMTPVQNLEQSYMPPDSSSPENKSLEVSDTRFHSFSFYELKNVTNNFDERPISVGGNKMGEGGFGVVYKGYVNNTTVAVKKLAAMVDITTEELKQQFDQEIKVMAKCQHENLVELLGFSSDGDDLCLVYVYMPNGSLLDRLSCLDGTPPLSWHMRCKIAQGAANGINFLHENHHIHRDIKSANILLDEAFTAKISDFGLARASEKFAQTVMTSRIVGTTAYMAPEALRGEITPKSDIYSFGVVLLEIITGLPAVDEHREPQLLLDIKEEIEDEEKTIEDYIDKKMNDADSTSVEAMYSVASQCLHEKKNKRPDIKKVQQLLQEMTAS
Description: FIG. 8 depicts deep proteomics scatterplots showing degradation of IRAK4 and IMiD substrates in OCI-Ly10 using Compound A. Type 1 IFN signaling was activated in OCI-Ly10 MYD88^MT DLBCL.

lymphocytes = test: Lymphopenia studies (Example 8, FIG. 5); format: in vivo
[1] = Human dose prediction by matching AUCs with intermittent dosing regimens in mice models; details: mouse, read-out: Weekly AUC
Procedure: Human dose predictions from intermittent dosing supports dose targets for both IV and PO dosing.
IV formulation up to 300 mg/dose is feasible (exposure for efficacy is 100-300 mg/dose). Dosing to ≥400 mg likely possible (>80% POS based on initial formulation assessment). Projected PO upper dose of 900 mg/day is feasible. May be divided into BID dosing to achieve exposure. High pill burden or unusual formulation strategy (e.g., mix and drink) may be needed. PO versus IV dosing in compared in Table 14.

OCI-Ly10 = test: CTG cell viability assay - OCI-Ly10; format: cell-based; details: Homo sapiens, 96 h; OCI-Ly10, 4 days
Procedure: Compound-mediated viability effect on OCI-Ly10 or SUDHL-2 was quantitatively determined using the CellTiter-Glo® Luminescent Cell Viability Assay kit from Promega (Catalog number G7570) following manufacturer's recommended procedures. Briefly, OCI-Ly10 or SUDHL-2 cells were seeded into 384 well plates (Grenier Bio-One, Catalog number 781080) with a density of 10,000 cells per well. Compounds were then added to the assay plate with final top concentration of 10 μM and 1:3 dilution series with total of 9 doses. The final DMSO concentration was normalized to 0.2%. The assay plates were incubated at 37° C. for 4 days under 5% CO2. Then the assay plate was equilibrated at room temperature for 10 minutes. To determine cell viability, 30 μL CellTiter Glo reagent was added to each well and the assay plate was centrifuged at 1000 rpm for 30 second, incubated at room temperature for 10 min, and analyzed by detecting the luminescence using a multimode plate reader (EnVision 2105, PerkinElmer). The data was then analyzed by software Prism 7.0 from GraphPad and the dose response curves were fit using a three-parameter logistic equation to calculate IC50.

[2] = Solubility in oral dosing vehicle; format: physicochemical; details: 10% HP-β-CD vehicle (oral dosing vehicle), aqueous with cosolvent or surfactant or cyclodextrin; 10% HP-β-CD in water at pH 3.5 (w/v), 25 C; read-out: measured solubility
Procedure: Formulation: 10% HP-β-CD in water at pH 3.5 (w/v) in water at pH 3.5 (w/v) • Prepare the 10% HP-β-CD vehicle on a (w/v) basis • Add compound with stirring. • Heat to ˜50 C for 10 minutes. Can also sonicate. • Adjust pH to 3.5. • Heat for another 10-20 minutes at ˜50 C. • Check and adjust the pH as needed. • Expect solution as the measured solubility was 10 mg/mL at 25 C.

Aiolos = target: T2, Aiolos (Homo sapiens, UniProt Q96SW2+Q9UKT9); test: Aiolos degradation in OCI-Ly10 xenograft tumors (tumor PD); format: in vivo; details: after 5d dosing
T2 construct: from tissue; host or cells: OCI-Ly10 xenograft tumours grown in mice
Procedure: Target exposure for efficacy in OCI-Ly10 is steady state C24h of 10-80 nM based on either a 3 mpk or 10 mpk dose. Rapid regressions are associated with strong degradation of both IRAK4 and IMiD substrates.

[3] = Compound exposure (PK) in plasma, spleen and tumor of OCI-Ly10 xenograph mice; format: in vivo, mouse
Procedure: At termination: At pre-determined time points based on study design, animals were humanely sacrificed by CO2. Blood was obtained by cardiac puncture for isolation of plasma, any residual tumor was removed and divided in 2 portions, 1 (minimal) for terminal compound exposure and 1 to determine IRAK4 and actin. Compound was determined in tumor and plasma using LC/MS with calibrated standards.

[4] = C.B. 17 SCID, mouse, plasma, 10 mg/kg, 10 mpk PO

T2 sequence (Q9UKT9 whole entry): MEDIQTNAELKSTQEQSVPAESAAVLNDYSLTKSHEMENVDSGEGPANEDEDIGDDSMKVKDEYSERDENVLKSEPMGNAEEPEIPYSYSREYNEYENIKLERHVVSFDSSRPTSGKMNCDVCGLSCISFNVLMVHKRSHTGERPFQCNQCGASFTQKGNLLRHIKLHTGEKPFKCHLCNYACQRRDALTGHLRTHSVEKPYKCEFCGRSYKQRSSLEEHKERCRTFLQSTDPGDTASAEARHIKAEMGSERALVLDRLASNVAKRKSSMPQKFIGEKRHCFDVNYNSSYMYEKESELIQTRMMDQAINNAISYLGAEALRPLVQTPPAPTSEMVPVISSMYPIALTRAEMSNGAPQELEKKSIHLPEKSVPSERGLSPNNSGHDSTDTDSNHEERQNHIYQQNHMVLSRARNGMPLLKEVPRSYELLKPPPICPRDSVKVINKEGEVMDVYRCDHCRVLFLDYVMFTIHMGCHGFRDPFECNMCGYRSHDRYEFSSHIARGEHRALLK
T2 sequence (Q96SW2 whole entry): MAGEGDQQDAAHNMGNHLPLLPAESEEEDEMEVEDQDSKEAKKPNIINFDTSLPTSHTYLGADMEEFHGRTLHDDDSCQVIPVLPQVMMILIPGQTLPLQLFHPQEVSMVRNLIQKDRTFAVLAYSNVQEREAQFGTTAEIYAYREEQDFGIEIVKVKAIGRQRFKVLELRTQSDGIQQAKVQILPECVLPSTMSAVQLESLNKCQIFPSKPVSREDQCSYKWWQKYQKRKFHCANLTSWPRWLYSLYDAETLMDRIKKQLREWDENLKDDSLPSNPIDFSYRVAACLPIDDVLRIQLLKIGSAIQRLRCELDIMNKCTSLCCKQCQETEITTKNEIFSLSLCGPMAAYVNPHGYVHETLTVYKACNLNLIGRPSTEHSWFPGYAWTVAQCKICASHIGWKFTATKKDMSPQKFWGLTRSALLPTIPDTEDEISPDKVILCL
T2 sequence (Q16531 whole entry partner): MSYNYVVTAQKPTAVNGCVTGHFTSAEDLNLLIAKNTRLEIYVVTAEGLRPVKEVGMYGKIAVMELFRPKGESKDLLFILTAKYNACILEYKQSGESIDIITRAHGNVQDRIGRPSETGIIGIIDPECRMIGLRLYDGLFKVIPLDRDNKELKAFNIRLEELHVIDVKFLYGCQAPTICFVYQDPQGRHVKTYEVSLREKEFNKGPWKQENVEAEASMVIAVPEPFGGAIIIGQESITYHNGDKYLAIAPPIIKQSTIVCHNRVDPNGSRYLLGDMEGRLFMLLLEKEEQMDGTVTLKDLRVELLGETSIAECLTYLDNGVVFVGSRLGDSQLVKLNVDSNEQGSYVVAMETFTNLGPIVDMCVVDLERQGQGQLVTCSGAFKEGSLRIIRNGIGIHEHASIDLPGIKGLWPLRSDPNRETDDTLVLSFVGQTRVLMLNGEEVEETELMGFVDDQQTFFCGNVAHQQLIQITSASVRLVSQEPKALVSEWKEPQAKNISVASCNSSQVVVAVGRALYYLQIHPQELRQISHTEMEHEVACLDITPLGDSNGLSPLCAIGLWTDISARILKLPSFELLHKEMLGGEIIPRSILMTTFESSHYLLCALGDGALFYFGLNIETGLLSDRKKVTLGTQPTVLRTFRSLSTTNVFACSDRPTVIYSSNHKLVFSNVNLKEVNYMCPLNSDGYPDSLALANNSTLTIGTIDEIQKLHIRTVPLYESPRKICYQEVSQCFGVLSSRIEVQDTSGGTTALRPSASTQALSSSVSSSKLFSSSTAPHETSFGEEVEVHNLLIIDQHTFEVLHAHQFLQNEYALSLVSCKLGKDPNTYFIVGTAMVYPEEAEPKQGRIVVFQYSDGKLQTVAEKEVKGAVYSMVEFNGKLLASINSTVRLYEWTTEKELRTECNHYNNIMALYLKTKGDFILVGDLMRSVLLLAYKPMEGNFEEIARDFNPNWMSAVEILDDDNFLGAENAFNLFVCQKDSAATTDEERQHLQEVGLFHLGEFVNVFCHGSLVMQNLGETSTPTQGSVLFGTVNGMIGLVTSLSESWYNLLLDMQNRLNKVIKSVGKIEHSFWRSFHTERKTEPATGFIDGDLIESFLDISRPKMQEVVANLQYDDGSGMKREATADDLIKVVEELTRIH

## CC(C)(O)c1cc2nc([C@H]3CC[C@H](CN4CC5(CC(CCNc6cccc7c6C(=O)N(C6CCC(=O)NC6=O)C7=O)C5)C4)CC3)sc2cc1NC(=O)c1cccc(C(F)(F)F)n1 (stereo partly drawn) [Compound A, N-(2-((1r,4r)-4-((6-(2-((2-(2,6-dioxopiperidin-3-yl)-1,3-dioxoisoindolin-4-yl)amino)ethyl)-2-azaspiro[3.3]heptan-2-yl)methyl)cyclohexyl)-5-(2-hydroxypropan-2-yl)benzo[d]thiazol-6-yl)-6-(trifluoromethyl)picolinamide]
IRAK4
  degradation of IRAK4 (time course): > 80%
lymphocytes; IV
  Lymphocyte declines: Lymphocyte declines are transient
lymphocytes; PO
  Lymphocyte declines: Lymphocyte declines are transient
lymphocytes; intermittent dosing
  Lymphopenia on intermittent dosing: transient
  Lymphopenia: recovery by day: 7-14 D
[1]; 3 mg/kg, OCI-Ly10 model, IV 3 mpk BIW
  AUC: 12 µM·h
[1]; 10 mg/kg, OCI-Ly10 model, PO 10 mpk BIW
  AUC: 7 µM·h
[1]; 12 mg/kg, OCI-Ly10 model, IV 12 mpk QW
  AUC at 1 week: 24 µM·h
[1]; 30 mg/kg, DHL2 model, PO 30 mpk BIW
  AUC: 18 µM·h
[1]; 30 mg/kg, OCI-Ly10 model, PO 30 mpk QW
  AUC at 1 week: 18 µM·h
[1]; DHL2 model, IV ~10 (est.) mpk BIW, estimated
  AUC: ~36 µM·h
OCI-Ly10
  pIC50: > 7.30
[2]
  solubility: 10000 µg/mL (≈ 11.5 mM)
Aiolos; 3 mpk
  Aiolos (% Deg): 49%
Aiolos; 10 mpk
  Aiolos (% Deg): 91%
Aiolos; 30 mpk
  Aiolos (% Deg): 97%
[3]; 10 mpk PO
  F: 19.0%
[3]; [4]
  AUC(0-t): 2.83 µM·h
  Cmax: 180 nM
  Tmax: 8 h
  half-life: 9.35 h
[3]; C.B. 17 SCID, mouse, plasma, 3 mpk, after 5d dosing, read-out: Plasma C24 h
  concentration at 24 h: 10 nM
[3]; C.B. 17 SCID, mouse, plasma, 10 mpk PO, read-out: C24 h
  concentration at 24 h: 55 nM
[3]; C.B. 17 SCID, mouse, plasma, 10 mpk, after 5d dosing, read-out: Plasma C24 h
  concentration at 24 h: 80 nM
[3]; C.B. 17 SCID, mouse, plasma, 30 mpk, after 5d dosing, read-out: Plasma C24 h
  concentration at 24 h: 640 nM
[3]; C.B. 17 SCID, mouse, plasma, based on either a 3 mpk or 10 mpk dose, read-out: Target exposure for efficacy in OCI-Ly10: steady state C24h
  concentration at 24 h: 10 to 80 nM
[3]; C.B. 17 SCID, mouse, spleen, 3 mpk, after 5d dosing, read-out: Spleen C24 h
  concentration at 24 h: 500 nM
[3]; C.B. 17 SCID, mouse, spleen, 10 mpk, after 5d dosing, read-out: Spleen C24 h
  concentration at 24 h: 4100 nM
[3]; C.B. 17 SCID, mouse, spleen, 30 mpk, after 5d dosing, read-out: Spleen C24 h
  concentration at 24 h: 59000 nM
[3]; C.B. 17 SCID, mouse, tumor, 3 mpk, after 5d dosing, read-out: Tumor C24 h
  concentration at 24 h: 430 nM
[3]; C.B. 17 SCID, mouse, tumor, 10 mpk, after 5d dosing, read-out: Tumor C24 h
  concentration at 24 h: 4200 nM
[3]; C.B. 17 SCID, mouse, tumor, 30 mpk, after 5d dosing, read-out: Tumor C24 h
  concentration at 24 h: 64000 nM
[3]; single dose, FIG. 4
  tissue exposure relative to plasma: high tissue exposure relative to plasma
